pKi: −log10 of the molar value. Like-named read-outs stand apart in the source and are kept apart here.
Columns and labels:
ORL-1 receptor = ORL-1 receptor (Homo sapiens, UniProt P41146); experiment: ORL-1 receptor binding studies, radioligand [3H]-AcRYYRWK-NH2
Experimental: The receptor binding studies were carried out on 96-well plates; the incubation medium was Tris HCl pH 7.4 (4°C) containing MgCl2 (5 mM), EGTA (0.2 mM), BSA (0.1 %), with a final volume of […], using as radioligand [^3H]-AcRYYRWK-NH2 (Amersham, 103 Ci/mmol). The samples were incubated at 37°C for 120 min. and were then filtered off via Whatman GF/B filters pre-treated with 0.2% polyethylenimine. The filters were washed three times with Tris HCl buffer pH 7.4 (4°C). The radioactivity present on the filters was measured using a Packard Top Count microplate scintillation counter.

CYP1A2 = biological target: T1, CYP1A2 (Homo sapiens, UniProt P05177); experiment: Interaction with Cytochrome P450 isoenzymes: CYP1A2; type: in vitro ADME; details: Supersomes expressing human CYP1A2, substrate CEC, fluorometric; read-out: CYP450 interaction (IC50, uM) 1A2
T1 construct: purchased Gentest Corporation, Woburn, MA (Supersomes); host or cells: baculovirus-insect cells
T1 sequence (P05177 1-516): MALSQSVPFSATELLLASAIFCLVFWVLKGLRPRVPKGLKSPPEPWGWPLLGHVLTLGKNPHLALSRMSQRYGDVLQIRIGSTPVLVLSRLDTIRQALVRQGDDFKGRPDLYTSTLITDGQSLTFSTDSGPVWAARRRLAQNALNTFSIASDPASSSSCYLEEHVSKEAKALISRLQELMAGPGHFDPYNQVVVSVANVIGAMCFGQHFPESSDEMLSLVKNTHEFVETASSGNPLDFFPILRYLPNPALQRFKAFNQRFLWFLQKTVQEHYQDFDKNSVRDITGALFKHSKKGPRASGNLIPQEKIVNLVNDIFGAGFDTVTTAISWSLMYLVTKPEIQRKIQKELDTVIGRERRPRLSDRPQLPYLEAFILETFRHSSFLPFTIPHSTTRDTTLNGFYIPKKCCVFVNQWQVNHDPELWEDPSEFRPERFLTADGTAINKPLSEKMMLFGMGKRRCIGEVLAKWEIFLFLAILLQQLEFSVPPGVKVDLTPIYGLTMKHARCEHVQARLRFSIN
Experimental: (§1) The assay was performed in a 96-well microtiter plates as described in Stresser et al., Drug Metab. Dispos. 28, 1440 (2000). Microsomes from baculovirus-insect cells (Supersomes, Gentest Corporation, Woburn, MA) expressing human cytochrome P450 isoforms (CYP1A2, CYP2C9, CYP2C19, CYP2D6 and CYP3A4) were utilized. Test compounds or standard inhibitors (dissolved in DMSO or acetonitrile) were serially diluted in a solution containing 16.3 uM NADP^+, 0.83 mM glucose-6-phosphate, 0.83 mM MgCl2, 0.4 U/mL of glucose-6-phosphate dehydrogenase and 0.1 mg/mL microsomal protein prepared from wild-type baculovirus-infected insect cells. Appropriate control wells without inhibitor and without microsomes were also added. The plates were then pre-warmed at 37°C for 10 min, and the reaction was started by adding pre-warmed enzyme/substrate mix (cytochrome P450 isoforms with their specific substrates in a 0.35 M potassium phosphate buffer at pH 7.4). Specific substrates were 3-cyano-7-ethoxycoumarin (CEC) for CYP1A2 and CYP2C19, 7-methoxy-4-trifluoromethylcoumarin (MFC) or dibenzylfluorescein (DBF) for CYP2C9, 3-[2-(N,N-diethyl-N-methylamino)ethyl]-7-methoxy-4-methylcoumarin (AMMC) for CYP2D6 and 7-benzyloxy-4-(trifluoromethyl)-coumarin (BFC) for CYP3A4. Reaction was terminated at various times, depending on the assays, by addition of a 4:1 acetonitrile:0.5 M Tris base solution. Known inhibitors for each isoenzyme (furafylline for CYP1A2, sulfaphenazole for CYP2C9, tranylcypromine for CYP2C19, quinidine for CYP2D6 and ketoconazole for CYP3A4) were tested in all assays as positive controls. Plates were read on a fluorometer (Fluoroskan Ascent, ThermoElectron Corporation, Helsinki, Finland) at the appropriate emission/excitation wavelengths. Median inhibitory concentration (IC50) was determined by nonlinear regression (GraFit software, Erithacus Software, Horley, UK).

CYP2C9 = biological target: T2, CYP2C9 (Homo sapiens, UniProt P11712); experiment: Interaction with Cytochrome P450 isoenzymes: CYP2C9; type: in vitro ADME; details: Supersomes expressing human CYP2C9, substrate MFC or DBF, fluorometric; read-out: CYP450 interaction (IC50, uM) 2C9
T2 construct: purchased Gentest Corporation, Woburn, MA (Supersomes); host or cells: baculovirus-insect cells
T2 sequence (P11712 whole entry): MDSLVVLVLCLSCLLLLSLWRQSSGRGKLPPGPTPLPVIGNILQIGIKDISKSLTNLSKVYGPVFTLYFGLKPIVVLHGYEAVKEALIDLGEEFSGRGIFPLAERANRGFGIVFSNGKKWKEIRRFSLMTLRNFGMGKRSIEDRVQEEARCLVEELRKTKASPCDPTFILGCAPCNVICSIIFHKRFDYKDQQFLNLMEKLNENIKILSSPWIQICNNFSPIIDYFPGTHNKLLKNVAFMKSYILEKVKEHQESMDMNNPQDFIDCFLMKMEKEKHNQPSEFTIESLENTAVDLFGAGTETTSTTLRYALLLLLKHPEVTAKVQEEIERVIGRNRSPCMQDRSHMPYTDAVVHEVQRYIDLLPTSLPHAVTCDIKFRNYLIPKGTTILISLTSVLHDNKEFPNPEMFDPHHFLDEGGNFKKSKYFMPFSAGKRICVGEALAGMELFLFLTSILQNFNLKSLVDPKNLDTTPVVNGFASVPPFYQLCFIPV
Experimental: as §1

CYP2C19 = biological target: T3, CYP2C19 (Homo sapiens, UniProt P33261); experiment: Interaction with Cytochrome P450 isoenzymes: CYP2C19; type: in vitro ADME; details: Supersomes expressing human CYP2C19, substrate CEC, fluorometric; read-out: CYP450 interaction (IC50, uM) 2C19
T3 construct: purchased Gentest Corporation, Woburn, MA (Supersomes); host or cells: baculovirus-insect cells
T3 sequence (P33261 whole entry): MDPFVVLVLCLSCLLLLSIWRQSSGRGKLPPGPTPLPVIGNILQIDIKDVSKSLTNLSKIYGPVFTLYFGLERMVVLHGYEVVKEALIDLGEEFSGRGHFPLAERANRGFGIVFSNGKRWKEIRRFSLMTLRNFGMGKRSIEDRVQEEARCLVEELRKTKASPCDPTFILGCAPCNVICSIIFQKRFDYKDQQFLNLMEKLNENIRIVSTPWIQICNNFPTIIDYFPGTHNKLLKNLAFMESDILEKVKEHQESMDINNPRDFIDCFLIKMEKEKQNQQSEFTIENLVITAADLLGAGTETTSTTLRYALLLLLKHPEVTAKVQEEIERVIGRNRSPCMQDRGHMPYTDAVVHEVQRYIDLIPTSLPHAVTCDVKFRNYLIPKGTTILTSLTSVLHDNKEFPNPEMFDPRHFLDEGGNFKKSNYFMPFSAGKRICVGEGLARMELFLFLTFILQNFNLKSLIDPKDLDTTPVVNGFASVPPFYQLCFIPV
Experimental: as §1

CYP2D6 = biological target: T4, CYP2D6 (Homo sapiens, UniProt P10635); experiment: Interaction with Cytochrome P450 isoenzymes: CYP2D6; type: in vitro ADME; details: Supersomes expressing human CYP2D6, substrate AMMC, fluorometric; read-out: CYP450 interaction (IC50, uM) 2D6
T4 construct: purchased Gentest Corporation, Woburn, MA (Supersomes); host or cells: baculovirus-insect cells
T4 sequence (P10635 whole entry): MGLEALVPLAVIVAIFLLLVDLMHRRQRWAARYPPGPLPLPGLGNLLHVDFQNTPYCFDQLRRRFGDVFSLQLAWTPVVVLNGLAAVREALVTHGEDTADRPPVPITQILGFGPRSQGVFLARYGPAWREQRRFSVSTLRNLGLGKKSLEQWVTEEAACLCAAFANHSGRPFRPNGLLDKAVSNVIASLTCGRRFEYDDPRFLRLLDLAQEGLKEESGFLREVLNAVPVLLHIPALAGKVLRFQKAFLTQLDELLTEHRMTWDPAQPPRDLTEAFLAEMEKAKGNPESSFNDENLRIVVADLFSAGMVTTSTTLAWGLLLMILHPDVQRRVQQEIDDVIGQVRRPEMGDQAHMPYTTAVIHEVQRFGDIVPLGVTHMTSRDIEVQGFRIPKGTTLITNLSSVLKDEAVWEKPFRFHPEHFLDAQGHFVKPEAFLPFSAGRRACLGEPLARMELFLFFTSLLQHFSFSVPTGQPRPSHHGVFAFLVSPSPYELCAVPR
Experimental: as §1

CYP3A4 = biological target: T5, CYP3A4 (Homo sapiens, UniProt P08684); experiment: Interaction with Cytochrome P450 isoenzymes: CYP3A4; type: in vitro ADME; details: Supersomes expressing human CYP3A4, substrate BFC, fluorometric; read-out: CYP450 interaction (IC50, uM) 3A4
T5 construct: purchased Gentest Corporation, Woburn, MA (Supersomes); host or cells: baculovirus-insect cells
T5 sequence (P08684 whole entry): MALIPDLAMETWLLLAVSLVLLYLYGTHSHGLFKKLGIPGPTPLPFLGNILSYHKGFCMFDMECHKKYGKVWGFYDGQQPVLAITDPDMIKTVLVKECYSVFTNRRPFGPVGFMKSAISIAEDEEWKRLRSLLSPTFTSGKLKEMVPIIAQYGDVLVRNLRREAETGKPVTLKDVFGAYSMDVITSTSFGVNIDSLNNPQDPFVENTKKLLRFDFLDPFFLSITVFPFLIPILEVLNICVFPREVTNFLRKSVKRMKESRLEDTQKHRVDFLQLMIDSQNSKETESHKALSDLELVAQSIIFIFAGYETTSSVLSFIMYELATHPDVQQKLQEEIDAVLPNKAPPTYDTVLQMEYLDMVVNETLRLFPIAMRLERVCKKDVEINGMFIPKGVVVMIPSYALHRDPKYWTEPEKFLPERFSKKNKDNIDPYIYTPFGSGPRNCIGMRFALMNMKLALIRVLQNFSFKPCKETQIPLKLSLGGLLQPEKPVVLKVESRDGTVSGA
Experimental: as §1

[1] = radioligand [3H]-AcRYYRWK-NH2, 37°C, 120 min, read-out: ORL-1 Binding affinity (Ki)

Sequence of ORL-1 receptor (P41146 whole entry): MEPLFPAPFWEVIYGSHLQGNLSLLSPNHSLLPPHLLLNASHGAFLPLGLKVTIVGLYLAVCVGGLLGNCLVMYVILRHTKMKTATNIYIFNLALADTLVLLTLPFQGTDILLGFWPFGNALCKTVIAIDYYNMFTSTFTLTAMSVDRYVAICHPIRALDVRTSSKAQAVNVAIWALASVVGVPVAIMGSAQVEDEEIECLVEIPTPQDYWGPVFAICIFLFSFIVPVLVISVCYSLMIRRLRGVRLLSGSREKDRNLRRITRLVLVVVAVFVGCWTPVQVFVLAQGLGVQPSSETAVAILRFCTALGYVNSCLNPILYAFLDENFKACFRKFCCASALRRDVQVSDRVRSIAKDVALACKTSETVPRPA

Row | Compound | pKi (ORL-1 receptor) | IC50 (CYP1A2) | IC50 (CYP2C9) | IC50 (CYP2C19) | IC50 (CYP2D6) | IC50 (CYP3A4) | pKi (ORL-1 receptor; [1])
1 | Cc1c(CN2CCC(c3c(F)cccc3Cl)CC2)c2ccccc2n1CC(=O)NC1CCN(C)CC1 [Example 11, 2-{3-[4-(2-Chloro-6-fluoro-phenyl)-piperidin-1-ylmethyl]-2-methyl-indol-1-yl}-N-(1-methyl-piperidin-4-yl)-acetamide] | 8.26 | > 100 µM | > 100 µM | 47.4 µM | 20.7 µM | 9.6 µM | –
2 | CC(=O)N(C)C1CCN(C(=O)c2[nH]c3ccccc3c2CN2CCC(c3c(F)cccc3Cl)CC2)C1 (stereo not shown) [Example 3, N-(1-{3-[4-(2-Chloro-6-fluoro-phenyl)-piperidin-1-ylmethyl]-1 H-indole-2-carbonyl}-pyrrolidin-3-yl)-N-methyl-acetamide] | – | > 100 µM | 25.9 µM | 47.5 µM | 8.6 µM | 54.7 µM | 8.38
3 | Fc1cccc(F)c1C1CCN(Cc2c(-c3ccccc3)[nH]c3ccccc23)CC1 [53 (W02005005411), reference compound] | – | 11.8 µM | 10.7 µM | 17.4 µM | < 0.1 µM | 13 µM | –
4 | NC(=O)Cn1c(C(=O)N2CCOCC2)c(CN2CCC(c3c(F)cccc3Cl)CC2)c2ccccc21 [Example 7, 2-[3-[4-(2-Chloro-6-fluoro-phenyl)-piperidin-1-ylmethyl]-2-(morpholine-4-carbonyl)-indol-1-yl]-acetamide] | – | > 100 µM | 20.2 µM | 25.1 µM | 16.8 µM | 13.3 µM | 8.32
5 | CN1CCN(C(=O)Cn2c(-c3ccccc3)c(CN3CCC(c4c(F)cccc4F)CC3)c3ccccc32)CC1 [Example 15, 2-{3-[4-(2,6-Difluoro-phenyl)-piperidin-1-ylmethyl]-2-phenyl-indol-1-yl}-1-(4-methyl-piperazin-1-yl)-ethanone] | – | > 100 µM | 74.4 µM | 38.3 µM | 34.7 µM | 6.2 µM | 8.09
6 | O=C(c1[nH]c2ccccc2c1CN1CCC(c2c(F)cccc2F)CC1)N1CCN(CCOCCO)CC1 [Example 6, {3-[4-(2,6-Difluoro-phenyl)-piperidin-1-ylmethyl]-1H-indol-2-yl}-{4-[2-(2-hydroxy-ethoxy)-ethyl]-piperazin-1-yl}-methanone] | – | > 100 µM | > 100 µM | > 100 µM | 5.1 µM | 98.2 µM | 7.47
7 | NC(=O)Cn1c(C(=O)N2CCOCC2)c(CN2CCC(c3c(F)cccc3F)CC2)c2ccccc21 [Example 8, 2-[3-[4-(2,6-Difluoro-phenyl)-piperidin-1-ylmethyl]-2-(morpholine-4-carbonyl)-indol-1-yl]-acetamide] | – | 86 µM | 31.2 µM | 70.1 µM | 6.2 µM | 25.6 µM | –
8 | O=C(Cn1c(-c2ccccc2)c(CN2CCC(c3c(F)cccc3F)CC2)c2ccccc21)N1CCOCC1 [Example 13, 2-{3-[4-(2,6-Difluoro-phenyl)-piperidin-1-ylmethyl]-2-phenyl-indol-1-yl}-l-morpholin-4-yl-ethanone] | 7.74 | > 100 µM | 98.6 µM | 62.6 µM | 94.6 µM | 38.1 µM | –
9 | O=C(Cn1c(-c2ccccc2)c(CN2CCC(c3c(F)cccc3Cl)CC2)c2ccccc21)N1CCOCC1 [Example 12, 2-{3-[4-(2-Chloro-6-fluoro-phenyl)-piperidin-1-ylmethyl]-2-phenyl-indol-1-y}-1-morpholin-4-yl-ethanone] | – | > 100 µM | > 100 µM | > 100 µM | 36.6 µM | 18.2 µM | 8.55
